Results published in ChEMBL document CHEMBL1201862, “PubChem BioAssay data set” (2004).
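1) Cells in 96-well plates. 2) Compound, 48 h, 5 concentrations. 3) Linear interpolation between surrounding doses. 4) Unreached endpoint = highest concentration. GI50 marks 50% less growth.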 The source made the active and inactive calls. Rule as the data show it: active = GI50 up to about 1.1 µM and inactive = higher.

Legend:
Assay in all cases: growth of human tumour cells (NCI), 48 h
SR = tested on: SR
RXF 393 = tested on: RXF 393
SK-MEL-28 = tested on: SK-MEL-28
HCT-116 = tested on: HCT-116
NCI/ADR-RES = tested on: NCI/ADR-RES
MOLT-4 = tested on: MOLT-4
HOP-92 = tested on: HOP-92
HCC 2998 = tested on: HCC 2998
A498 = tested on: A498
NCI-H460 = tested on: NCI-H460
U-251 = tested on: U-251
Hs-578T = tested on: Hs-578T
HT-29 = tested on: HT-29
SF-539 = tested on: SF-539
SF-295 = tested on: SF-295
SNB-19 = tested on: SNB-19
DU-145 = tested on: DU-145
NCI-H522 = tested on: NCI-H522
MDA-MB-231 = tested on: MDA-MB-231
A549 = tested on: A549

Compound | GI50 (SR) | GI50 (RXF 393) | GI50 (SK-MEL-28) | GI50 (HCT-116) | GI50 (NCI/ADR-RES) | GI50 (MOLT-4) | GI50 (HOP-92) | GI50 (HCC 2998) | GI50 (A498) | GI50 (NCI-H460) | GI50 (U-251) | GI50 (Hs-578T) | GI50 (HT-29) | GI50 (SF-539) | GI50 (SF-295) | GI50 (SNB-19) | GI50 (DU-145) | GI50 (NCI-H522) | GI50 (MDA-MB-231) | GI50 (A549)
COc1ccc2nc3cccc([N+](=O)[O-])c3c(NCCC(=O)O)c2c1 | > 10 µM (inactive) | > 10 µM (inactive) | > 10 µM (inactive) | > 10 µM (inactive) | > 10 µM (inactive) | 5.22 µM (inactive) | > 10 µM (inactive) | > 10 µM (inactive) | > 10 µM (inactive) | > 10 µM (inactive) | > 10 µM (inactive) | 9.14 µM (inactive) | > 10 µM (inactive) | > 10 µM (inactive) | > 10 µM (inactive) | > 10 µM (inactive) | > 10 µM (inactive) | 4.56 µM (inactive) | > 10 µM (inactive) | > 10 µM (inactive)
Fc1cc2nc3n(c2cc1F)C(c1c(Cl)cccc1Cl)SC3 (stereo not given) | 4.51 µM (inactive) | 14.9 µM (inactive) | 14 µM (inactive) | 12.6 µM (inactive) | 16.1 µM (inactive) | 24.4 µM (inactive) | 13.6 µM (inactive) | 15.8 µM (inactive) | 20.1 µM (inactive) | 13.7 µM (inactive) | 17.1 µM (inactive) | 18.4 µM (inactive) | 16.2 µM (inactive) | 20.5 µM (inactive) | 13.4 µM (inactive) | 14 µM (inactive) | 17.5 µM (inactive) | 16.9 µM (inactive) | 18.8 µM (inactive) | 14.9 µM (inactive)
CCCCCCCCCCCCCCCC(=O)Nc1ccn(C2OC(CO)C(O)C2O)c(=O)n1 (stereo not given) | 0.6 µM (active) | 24.6 µM (inactive) | 41.9 µM (inactive) | 1.21 µM (inactive) | 7.23 µM (inactive) | 0.131 µM (active) | 16.6 µM (inactive) | 25.1 µM (inactive) | 22.1 µM (inactive) | 0.78 µM (active) | 12.4 µM (inactive) | > 45.2 µM (inactive) | 25.7 µM (inactive) | 57.7 µM (inactive) | 51.1 µM (inactive) | 15.2 µM (inactive) | 3.38 µM (inactive) | 2.25 µM (inactive) | > 62.8 µM (inactive) | 2.62 µM (inactive)
O=C1c2cccc3cc4ccccc4c(c23)C(=O)N1CCCNCCNCCCN1C(=O)c2cccc3cc4ccccc4c(c23)C1=O | < 0.01 µM (active) | 0.179 µM (active) | 0.239 µM (active) | < 0.0191 µM (active) | 0.314 µM (active) | < 0.01 µM (active) | 1 µM (active) | 0.0964 µM (active) | 0.526 µM (active) | < 0.01 µM (active) | 0.0264 µM (active) | 0.0635 µM (active) | 0.0104 µM (active) | 0.142 µM (active) | 0.0182 µM (active) | 0.217 µM (active) | 0.475 µM (active) | < 0.01 µM (active) | 0.189 µM (active) | 0.0133 µM (active)
CSc1c(CC(=O)Nc2ccc(Cl)cc2)n(Cc2ccccc2)c2ccccc12 | 23 µM (inactive) | 12.8 µM (inactive) | > 100 µM (inactive) | 23.9 µM (inactive) | 19.4 µM (inactive) | 43.1 µM (inactive) | 13.7 µM (inactive) | 19.5 µM (inactive) | 8.26 µM (inactive) | 25.5 µM (inactive) | 11.6 µM (inactive) | 14.4 µM (inactive) | 39.4 µM (inactive) | 3 µM (inactive) | 62.7 µM (inactive) | 46.9 µM (inactive) | 38.5 µM (inactive) | 18.1 µM (inactive) | 14.8 µM (inactive) | 43.5 µM (inactive)
COc1cc(CNCc2cc(OC)c(OC)c(OC)c2)cc(OC)c1OC | > 5.38 µM (inactive) | > 10 µM (inactive) | > 10 µM (inactive) | > 10 µM (inactive) | > 10 µM (inactive) | > 5.7 µM (inactive) | > 6.07 µM (inactive) | > 10 µM (inactive) | > 10 µM (inactive) | > 10 µM (inactive) | > 10 µM (inactive) | > 10 µM (inactive) | > 10 µM (inactive) | > 10 µM (inactive) | > 10 µM (inactive) | > 10 µM (inactive) | > 10 µM (inactive) | > 4.88 µM (inactive) | > 10 µM (inactive) | > 10 µM (inactive)
CCOC(=O)Nc1cc2ccccc2c(/N=N/c2ccccc2)c1O | > 100 µM (inactive) | 20.7 µM (inactive) | > 100 µM (inactive) | > 100 µM (inactive) | > 100 µM (inactive) | > 100 µM (inactive) | 88.7 µM (inactive) | > 100 µM (inactive) | > 100 µM (inactive) | > 100 µM (inactive) | 26.5 µM (inactive) | 25.2 µM (inactive) | > 100 µM (inactive) | 13 µM (inactive) | 31.7 µM (inactive) | 84.1 µM (inactive) | > 100 µM (inactive) | 29.6 µM (inactive) | > 100 µM (inactive) | > 100 µM (inactive)
O=C1C=Cc2c(Br)sc(Br)c21 | 24.7 µM (inactive) | 24.3 µM (inactive) | 28.8 µM (inactive) | 29.1 µM (inactive) | 36.1 µM (inactive) | 13.5 µM (inactive) | 24.7 µM (inactive) | 15.2 µM (inactive) | > 100 µM (inactive) | 32.3 µM (inactive) | 18.5 µM (inactive) | 29.2 µM (inactive) | 28.2 µM (inactive) | 59.3 µM (inactive) | > 100 µM (inactive) | > 100 µM (inactive) | 43.8 µM (inactive) | 26.1 µM (inactive) | 21.7 µM (inactive) | 55.1 µM (inactive)
CN(C)CCCNc1c(C#N)[n+]([O-])c2cc(Cl)ccc2[n+]1[O-] | 0.867 µM (active) | 21.2 µM (inactive) | 65.5 µM (inactive) | 7.18 µM (inactive) | 13.2 µM (inactive) | 1.18 µM (inactive) | 2.69 µM (inactive) | 5.53 µM (inactive) | 22.1 µM (inactive) | 2.62 µM (inactive) | 15.2 µM (inactive) | 31.6 µM (inactive) | 5.58 µM (inactive) | 14.1 µM (inactive) | 10.6 µM (inactive) | 26.2 µM (inactive) | 21.2 µM (inactive) | 3.1 µM (inactive) | 10.4 µM (inactive) | 7.67 µM (inactive)
